The values that follow come from patent US20030134859A1 (SANKYO COMPANY, LIMITED, priority 2000, published 2003).

Experiment [1] concerns Mouse preadipocyte strain 3T3-L1. Description: Inhibition of differentiation as an indication of acetic acid uptake. Type of experiment: cell-based. To be noted: control (0.01% dimethylsulfoxide) = 100%; for activity at 0.1 µM: Mus musculus, 3T3-L1, 0.1 μM test substance, read-out: Rate of Uptake (%) of [2-14C] acetic acid. The method in brief: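 Differentiation is indexed by 1 hr [2-14C]acetic acid incorporation, measured by scintillation counting and given as uptake relative to 0.01% DMSO control (100%). Mouse 3T3-L1 preadipocytes, pre-grown 10 days, received 0.1 μM test substance throughout a 4-day insulin/IBMX/dexamethasone induction, followed by 2 days' maintenance culture.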

The test system of experiment [2] is human colon cancer cells COL-2-JCK. In words: Inhibition of colony forming activity in human colon cancer cells. Type of experiment: cell-based. The settings on record: Homo sapiens, 240 h; 1 μM test compound; 10 days; sum of colony areas vs control; read-out: Inhibition Rate (%) against the colony forming activity. The procedure: For the medium to culture the human colon cancer cells, D-MEM/F-12 medium containing inactivated bovine fetal serum at a concentration of 10% (GIBCO) was used. The human colon cancer cells COL-2-JCK (purchased from Institute for Experimental Animals) grown in mass formation in a plastic dish for the cell culture with an inner diameter of 100 mm were stripped off from the dish by using EDTA (ethylenediaminetetraacetic acid) and 0.05% trypsin solution. Then, a cell dilution solution was prepared at a concentration of 100 cells/mL solution which was diluted with the medium (D-MEM/F-12).
Three (3) mL of the cell solution were inoculated in each well of a 6-well plastic plate (300 cells/well). The test compound that was dissolved in DMSO solution so as to be a final concentration of 1 μM of the test compound and that of DMSO solution of 0.1% was added to each well. DMSO solution alone was added into the well for the control so as to be a final concentration of 0.1%.
The cells in each well were cultured for 10 days at 37° C. in the presence of 5% CO2. After the culturing was finalised, each well was washed once with Dulbecco-phosphate-buffer-saline solution (bivalent anion). Then, 1.5 ml of neutral buffered formalin solution containing 0.02% crystal violet was added to each well and the plate was kept stationary for 5 min for fixation and staining the cells. After fixation and staining, the cells were washed with water and were air-dried. Then the sum of the colony area (mm^2) of the stained cancer cells was calculated by using an image analyzer PCA-11 (SystemScience). From the calculated values, the inhibition rate (%) of the compound against the colony forming activity was obtained based on the following equation.
Inhibition Rate (%) against the colony forming activity=(1−A/B)×100
A: Sum of Colony Areas in the Group Treated with 1 μM of the Test Compound
B: Sum of Colony Areas in the Control Group

Experiment [3] concerns Rat white adipocytes. Description: Stimulation of differentiation of the adipocytes (Oil Red O). Type of experiment: cell-based. To be noted: 100 nM test compound, 5 days, Oil Red O ABS550, control = 100%, blank = 0%, Table 7; for activity at 0.1 µM: Rattus norvegicus, Adipocyte, 120 h, read-out: Rate of Differentiation (%). A digest of the protocol: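 Oil Red O lipid staining, absorbance 550 nm after DMSO extraction, quantified differentiation of rat white adipocytes exposed 5 days to compound (final 100 nM, 0.1% DMSO) in differentiation medium. Percent differentiation normalised between cell-free blank (0%) and DMSO control (100%).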

In experiment [4] the test system is TNF-α production. In words: Inhibitory activity against cytokine (TNF-α) production in LPS-stimulated RAW264.7 cells. Type of experiment: cell-based, mouse. The settings on record: Mus musculus, RAW264.7, 15 h, 1 μM test compound, LPS 10 ng/mL. On the procedure: The mouse monocyte/macrophage cell line, RAW264.7 (ATCC TIB71) was purchased from Dainippon Pharmaceutical Co., Ltd. The RAW264.7 cells were cultured in a CO2 incubator (37° C., 95% of humidity, 5% of CO2) by using the Dulbecco's modified Eagle's medium (DMEM medium; GIBCO, Cat. No. 11995-040) containing bovine fetal serum (the final concentration: 10% (v/v), MOREGATE, lot No. 474030), penicillin G (the final concentration: 50 units/mL […], GIBCO) and streptomycin (the final concentration: 20 μg/mL, GIBCO).
Sixty (60) μL of the RAW264.7 cell suspension (83,000 cells/mL) were plated into each well of a 96-well microplate (5,000 cells/well). After the cells were cultured for 4 hr in a CO2 incubator, 40 μL of DMEM medium containing 25 ng/mL of LPS (Sigma-Aldrich Japan K. K.) were added into each well (final concentration of LPS: 10 ng/mL). The test compound dissolved in DMSO at a concentration of 1 mM was diluted with DMEM medium by 20 times. Then 2 μL/well of the diluted solution were added to wells containing the plated cells (final concentration of the test compound: 1 μM). As the control, 2 μL/well of DMSO diluted with DMEM medium by 20 times were added to wells containing the plated cells either with LPS (final concentration: 10 ng/mL) or without LPS. After these cells were cultured in a CO2 incubator for 15 hr, the supernatant of the medium was recovered. The amount of mTNF-α in the medium supernatant was determined with a mouse TNF-α ELISA kit Quantikine M (R&D System), according to the experiment protocol attached with the kit.
The inhibitory activity of the test compound against TNF-α production was calculated according to the following equation.
A: The amount of TNF-α in the presence of test compound
B: The amount of TNF-α in the control without LPS
C: The amount of TNF-α in the control with 10 ng/mL of LPS
Inhibitory Activity of the Test Compound against TNF-α Production (%)=100−(A−B)/(C−B)×100

The term inhibition denotes the relative decrease from the control value, in per cent.

As to `CCc1cccc(NC(=O)c2cc([N+](=O)[O-])ccc2Cl)c1` [Example 14, N-(3-Ethylphenyl)-(2-chloro-5-nitrophenyl)carboxamide], the activity at 0.1 µM in experiment [1] was 82.1%; in experiment [3], 121%. In addition, in experiment [2], the inhibition at 1 µM was 16%.
For `CCCCOc1ccc(NC(=O)c2cc([N+](=O)[O-])ccc2Cl)cc1` [Example 17, N-(4-Butyloxyphenyl)-(2-chloro-5-nitrophenyl)carboxamide], in that order: 91.9%, 114% and 30%.
Turning to `O=C(Nc1nc2ccccc2s1)c1cc([N+](=O)[O-])ccc1Cl` [Example 33, N-(Benzothiazol-2-yl)-(2-chloro-5-nitrophenyl)carboxamide], the activity at 0.1 µM in experiment [1] came to 86.1%; in experiment [3], 127%. Moreover, in experiment [2], the inhibition at 1 µM was 60%.
For the molecule `O=C(Nc1cccc2ncccc12)c1cc([N+](=O)[O-])ccc1Cl` [Example 56, N-(5-Quinolinyl)-(2-chloro-5-nitrophenyl)carboxamide], the activity at 0.1 µM turned out to be 32.4% in experiment [1] and 114% in experiment [3]. The inhibition at 1 µM in experiment [2] is 6%.
As for `COc1ccc2nc(NC(=O)c3cc([N+](=O)[O-])ccc3Cl)sc2c1` [Example 67, N-(6-Methoxybenzothiazol-2-yl)-(2-chloro-5-nitrophenyl)carboxamide], in experiment [1], the activity at 0.1 µM was 70.2%. Moreover, the inhibition at 1 µM was found to be 31% in experiment [2] and 23.2% in experiment [4].
`O=C(Nc1nc2c(Cl)cccc2s1)c1cc([N+](=O)[O-])ccc1Cl` [Example 69, N-(4-Chlorobenzothiazol-2-yl)-(2-chloro-5-nitrophenyl)carboxamide]: the activity at 0.1 µM in experiment [1] stood at 57%; in experiment [3], 135%. In addition, the inhibition at 1 µM in experiment [2] is 84%.
With `O=C(Nc1cc(-c2ccccc2)[nH]n1)c1cc([N+](=O)[O-])ccc1Cl` [Example 72, N-(5-Phenylpyrazol-3-yl)-(2-chloro-5-nitrophenyl)carboxamide], the results for the activity at 0.1 µM in experiment [1] and in experiment [3] were 76.7% and 124%, respectively. Also, the inhibition at 1 µM in experiment [2] came to 39%.
In the case of `O=C(Nc1ccc(S(=O)(=O)Nc2ncccn2)cc1)c1cc([N+](=O)[O-])ccc1Cl` [Example 95, N-[4-[(Pyrimidin-2-yl)aminosulfonyl]phenyl]-(2-chloro-5-nitrophenyl)carboxamide], the figures for the activity at 0.1 µM in experiment [1] and in experiment [3] were 86.3% and 115%, respectively. Moreover, the inhibition at 1 µM in experiment [2] stood at 1%.
In the case of `Cl.O=C(Nc1ccc(-c2ccccn2)cc1)c1cc([N+](=O)[O-])ccc1Cl` [Example 147, N-[4-(Pyridin-2-yl)phenyl]-(2-chloro-5-nitrophenyl)carboxamide Hydrochloride], the “Rate of Uptake (%) of [2-14C] acetic acid” value in experiment [1] (0.1 μM test substance) is given as 76.2%. For the same molecule, the inhibition at 1 µM in experiment [2] was found to be 19%. Besides, the “Rate of Differentiation (%)” value in experiment [3] is 115.5%.
